From ChEMBL document CHEMBL1201862, “PubChem BioAssay data set” (2004)
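Dose response: 5 concentrations. Exposure: 48 h. Format: 96-well plates. Endpoint: linear interpolation; highest concentration if not reached. GI50 is the concentration that inhibits growth by half.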 Active and inactive are the calls of the source. Cut-off read from the data, not from the text of the source: active = GI50 up to about 1.1 µM and inactive = higher.

How the values were obtained:
Experiment in all cases: growth of human tumour cells (NCI), 48 h
KM12 = tested on: KM12
HOP-92 = tested on: HOP-92
LOX IMVI = tested on: LOX IMVI
HCT-15 = tested on: HCT-15
SK-MEL-5 = tested on: SK-MEL-5
SNB-75 = tested on: SNB-75
EKVX = tested on: EKVX
PC-3 = tested on: PC-3
Hs-578T = tested on: Hs-578T
NCI-H522 = tested on: NCI-H522
NCI-H226 = tested on: NCI-H226
MDA-MB-435 = tested on: MDA-MB-435
UO-31 = tested on: UO-31
RXF 393 = tested on: RXF 393
A549 = tested on: A549
MDA-MB-231 = tested on: MDA-MB-231
BT-549 = tested on: BT-549
NCI/ADR-RES = tested on: NCI/ADR-RES
NCI-H460 = tested on: NCI-H460
RPMI-8226 = tested on: RPMI-8226

Row | SMILES | GI50 (KM12) | GI50 (HOP-92) | GI50 (LOX IMVI) | GI50 (HCT-15) [µM] | GI50 (SK-MEL-5) | GI50 (SNB-75) | GI50 (EKVX) | GI50 (PC-3) | GI50 (Hs-578T) | GI50 (NCI-H522) | GI50 (NCI-H226) | GI50 (MDA-MB-435) | GI50 (UO-31) | GI50 (RXF 393) | GI50 (A549) | GI50 (MDA-MB-231) | GI50 (BT-549) | GI50 (NCI/ADR-RES) | GI50 (NCI-H460) | GI50 (RPMI-8226)
1 | COc1cc([C@@H]2c3cc4c(cc3[C@@H](OC3OC5COC(C)OC5C(O)C3O)[C@H]3COC(=O)[C@H]23)OCO4)cc(OC)c1O (stereo partly specified) | 18.6 µM (inactive) | 9.2 µM (inactive) | 2.74 µM (inactive) | 17.6 | 5.48 µM (inactive) | 12.1 µM (inactive) | 27.7 µM (inactive) | 0.661 µM (active) | 0.735 µM (active) | 6.03 µM (inactive) | 3.44 µM (inactive) | 28.2 µM (inactive) | 42.3 µM (inactive) | 14.9 µM (inactive) | 3.61 µM (inactive) | 1.7 µM (inactive) | 2.4 µM (inactive) | 65.5 µM (inactive) | 0.533 µM (active) | –
2 | O=C(O[C@H](/C=C/c1ccccc1)P1(=O)N(Cc2ccccc2)[C@@H]2CCCC[C@H]2N1Cc1ccccc1)c1ccccc1 | 3.24 µM (inactive) | 1.91 µM (inactive) | 3.41 µM (inactive) | 2.91 | 1.86 µM (inactive) | – | 3.96 µM (inactive) | 3.39 µM (inactive) | 6.93 µM (inactive) | 3.95 µM (inactive) | 2.61 µM (inactive) | 3.63 µM (inactive) | 4.5 µM (inactive) | – | 3.66 µM (inactive) | 3.16 µM (inactive) | 4.55 µM (inactive) | 3.18 µM (inactive) | 3.46 µM (inactive) | 2.33 µM (inactive)
3 | OC1(c2ccc(Cl)cc2)c2ccc(CN3CCCC3)cc2C2=NCCN21 (stereo unspecified) | 12.8 µM (inactive) | 2.53 µM (inactive) | 13.9 µM (inactive) | 17.3 | 10.5 µM (inactive) | 3.16 µM (inactive) | 15.2 µM (inactive) | 13.3 µM (inactive) | 12.3 µM (inactive) | – | – | 10.5 µM (inactive) | 14.1 µM (inactive) | 8.26 µM (inactive) | 17.1 µM (inactive) | 13.9 µM (inactive) | 8.77 µM (inactive) | > 100 µM (inactive) | 14.6 µM (inactive) | 10.2 µM (inactive)
4 | O=c1ccn(C/C=C/c2ccccc2)c(=S)n1C/C=C/c1ccccc1 | > 100 µM (inactive) | > 100 µM (inactive) | 28.6 µM (inactive) | > 100 | 35.2 µM (inactive) | > 100 µM (inactive) | 66.8 µM (inactive) | 56.4 µM (inactive) | > 100 µM (inactive) | 67.8 µM (inactive) | > 100 µM (inactive) | 60 µM (inactive) | 76 µM (inactive) | 9.75 µM (inactive) | 17.7 µM (inactive) | > 100 µM (inactive) | 68.2 µM (inactive) | > 100 µM (inactive) | 80 µM (inactive) | –
5 | COc1ccccc1C[C@@H]1OC2(C=CC(=O)CC2SC(=O)c2ccccc2)O[C@H]1Cc1ccccc1OC (stereo partly specified) | 2.48 µM (inactive) | 1.64 µM (inactive) | 0.582 µM (active) | 1.05 | 1.62 µM (inactive) | 1.78 µM (inactive) | – | 1.88 µM (inactive) | 1.25 µM (inactive) | – | 2.08 µM (inactive) | 1.94 µM (inactive) | 1.28 µM (inactive) | 0.121 µM (active) | 2.9 µM (inactive) | 2.64 µM (inactive) | 0.318 µM (active) | 1.46 µM (inactive) | 2.44 µM (inactive) | 0.3 µM (active)
6 | C=CC(Cl)(CBr)CCC(Br)C(C)(C)Cl (stereo unspecified) | – | 19.5 µM (inactive) | – | 18.3 | 13.1 µM (inactive) | 19.2 µM (inactive) | 19.8 µM (inactive) | 17.5 µM (inactive) | 35.4 µM (inactive) | 10.6 µM (inactive) | > 100 µM (inactive) | 14.2 µM (inactive) | 15.4 µM (inactive) | 17.4 µM (inactive) | 31.3 µM (inactive) | 14.5 µM (inactive) | 21.4 µM (inactive) | 22.1 µM (inactive) | 14.8 µM (inactive) | 7.38 µM (inactive)
7 | CC(C)C1OC23CCCCC2C(C#N)(C#N)C1(C#N)C(=N)O3 (stereo unspecified) | > 10 µM (inactive) | 16.5 µM (inactive) | 20.1 µM (inactive) | 9.46 | 16.8 µM (inactive) | 28.4 µM (inactive) | 27.5 µM (inactive) | 30.4 µM (inactive) | 16.4 µM (inactive) | – | 98.6 µM (inactive) | 23.7 µM (inactive) | 32.7 µM (inactive) | 20.5 µM (inactive) | 71.8 µM (inactive) | 19.6 µM (inactive) | 18.8 µM (inactive) | 34.8 µM (inactive) | 4.73 µM (inactive) | –
8 | CN(C(=O)C12C3C4C1C1C2C3C41C(=O)O)C(C)(C)C (stereo unspecified) | > 100 µM (inactive) | > 100 µM (inactive) | > 100 µM (inactive) | > 100 | > 100 µM (inactive) | > 100 µM (inactive) | > 100 µM (inactive) | > 100 µM (inactive) | > 100 µM (inactive) | > 100 µM (inactive) | – | > 100 µM (inactive) | > 100 µM (inactive) | > 100 µM (inactive) | > 100 µM (inactive) | > 100 µM (inactive) | > 100 µM (inactive) | > 100 µM (inactive) | > 100 µM (inactive) | –
9 | O=C(CCN1CCCC1)c1ccc(Oc2ccc(F)cc2)cc1 | 29.9 µM (inactive) | 15 µM (inactive) | 30.5 µM (inactive) | 41.3 | 44.8 µM (inactive) | 47.8 µM (inactive) | 93.3 µM (inactive) | 38.5 µM (inactive) | 30.1 µM (inactive) | – | > 100 µM (inactive) | > 100 µM (inactive) | 50.9 µM (inactive) | 22.3 µM (inactive) | > 100 µM (inactive) | > 100 µM (inactive) | 74 µM (inactive) | > 100 µM (inactive) | > 100 µM (inactive) | –
10 | COc1cc2c(cc1OC)C13CCN4CC5=CCOC6CC(=O)N2C1C6C5CC43O (stereo unspecified) | > 100 µM (inactive) | > 100 µM (inactive) | > 100 µM (inactive) | > 100 | > 100 µM (inactive) | > 100 µM (inactive) | > 100 µM (inactive) | > 100 µM (inactive) | > 100 µM (inactive) | > 100 µM (inactive) | > 100 µM (inactive) | > 100 µM (inactive) | > 100 µM (inactive) | – | > 100 µM (inactive) | > 100 µM (inactive) | > 100 µM (inactive) | > 100 µM (inactive) | > 100 µM (inactive) | > 100 µM (inactive)
11 | O=C1/C(=C2\SCC(=O)N2c2ccccc2)SC(=S)N1c1ccccc1 | 51.9 µM (inactive) | 23.3 µM (inactive) | 32.7 µM (inactive) | 43 | 46.7 µM (inactive) | – | 30.3 µM (inactive) | 28.6 µM (inactive) | 34.5 µM (inactive) | – | 20.5 µM (inactive) | 32.1 µM (inactive) | – | 34.4 µM (inactive) | 31 µM (inactive) | 20.6 µM (inactive) | 2.82 µM (inactive) | 27 µM (inactive) | 39.1 µM (inactive) | 36.3 µM (inactive)
12 | CCOC(=O)Nn1c(C)nnc1-c1ccccc1 | > 100 µM (inactive) | > 100 µM (inactive) | > 100 µM (inactive) | > 100 | > 100 µM (inactive) | – | > 100 µM (inactive) | > 100 µM (inactive) | > 100 µM (inactive) | > 100 µM (inactive) | > 100 µM (inactive) | > 100 µM (inactive) | > 100 µM (inactive) | > 100 µM (inactive) | > 100 µM (inactive) | > 100 µM (inactive) | > 100 µM (inactive) | > 100 µM (inactive) | > 100 µM (inactive) | > 100 µM (inactive)
13 | CC(C)(C)NC1=NC(C(F)(F)F)(C(F)(F)F)NC(=O)N1 | 68.4 µM (inactive) | 20 µM (inactive) | 53 µM (inactive) | 57 | 24.8 µM (inactive) | 75.2 µM (inactive) | 84.1 µM (inactive) | 34.8 µM (inactive) | 58.2 µM (inactive) | – | > 100 µM (inactive) | 37.1 µM (inactive) | 53.6 µM (inactive) | > 100 µM (inactive) | 35.1 µM (inactive) | 77.1 µM (inactive) | 16.9 µM (inactive) | 61 µM (inactive) | 47.4 µM (inactive) | 36.9 µM (inactive)
14 | CN(C)CCC(C#N)(c1ccccc1)c1ccccc1 | > 100 µM (inactive) | 12.3 µM (inactive) | – | > 100 | 24.7 µM (inactive) | 52.6 µM (inactive) | > 100 µM (inactive) | 87.3 µM (inactive) | 93.5 µM (inactive) | 96.6 µM (inactive) | > 100 µM (inactive) | > 100 µM (inactive) | 65.9 µM (inactive) | 40 µM (inactive) | > 100 µM (inactive) | 47.5 µM (inactive) | > 100 µM (inactive) | 93.5 µM (inactive) | > 100 µM (inactive) | 24.9 µM (inactive)
15 | CC(C)OC(=O)Nc1cccc(Cl)c1 [CHLORPROPHAM] | 70.1 µM (inactive) | > 100 µM (inactive) | > 100 µM (inactive) | 83.6 | > 100 µM (inactive) | 40.7 µM (inactive) | 63.1 µM (inactive) | 94.4 µM (inactive) | > 100 µM (inactive) | – | > 100 µM (inactive) | > 100 µM (inactive) | > 100 µM (inactive) | > 100 µM (inactive) | > 100 µM (inactive) | > 100 µM (inactive) | 87.7 µM (inactive) | 91.4 µM (inactive) | 76.4 µM (inactive) | > 100 µM (inactive)
